According to the Deep4Chem optical property database:
Where “and” joins values, the source holds several entries; their conditions need not be identical. Equal values may be shown once. One block for each compound: values may come before it.

Assay: solvent given as SMILES

Structure (SMILES): CCCCC1(c2ccccc2)Nc2c(-c3ccc(N(C)C)cc3)ccc(-c3ccc(N(C)C)cc3)c2N=C1c1ccccc1 (stereo unspecified)
emission maximum (in C1CCOC1): 568 nm
emission maximum (in CC#N): 588 nm
emission maximum (in CCCCCC): 530 nm
emission maximum (in CN(C)C=O): 596 nm
emission maximum (in Cc1ccccc1): 547 nm
emission maximum (in ClC(Cl)Cl): 561 nm

Structure (SMILES): O=Cc1ccc(C2=C3C=c4c(oc5ccccc45)=[N+]3[B-](F)(F)n3c2cc2c4ccccc4oc23)cc1
emission maximum (in C1CCCCC1): 612 nm
emission maximum (in C1CCOC1): 615 nm
emission maximum (in CC#N): 611 nm
emission maximum (in CCOC(C)=O): 610 nm
emission maximum (in CN(C)C=O): 615.5 nm
emission maximum (in CO): 609.5 nm
emission maximum (in Cc1ccccc1): 620.5 nm
emission maximum (in ClCCl): 618.5 nm

Structure (SMILES): c1ccc(-c2nc(-c3ccccc3)nc(-c3ccc(-n4c5ccccc5c5cc6c(cc54)c4ccccc4n6-c4ccccc4)cc3)n2)cc1
emission maximum (in Cc1ccccc1): 478 nm
emission maximum (in O=P(c1ccccc1)(c1ccccc1)c1ccc2oc3ccc(P(=O)(c4ccccc4)c4ccccc4)cc3c2c1): 511 nm

Structure (SMILES): c1ccc(-c2nnc(-c3ccc(N4c5ccccc5N(c5ccccc5)c5ccccc54)cc3)n2-c2ccccc2)cc1
emission maximum (in Cc1ccccc1): 528 nm
emission maximum (in c1cc(-n2c3ccccc3c3ccccc32)cc(-n2c3ccccc3c3ccccc32)c1): 520 nm

Structure (SMILES): CCOC(=O)/N=c1/oc2cc(OC)ccc2cc1C#N
emission maximum (in ClCCl): 434 nm

Structure (SMILES): CCOC(=O)C1=CNC=C(C(=O)OCC)C1c1ccccc1
emission maximum (in C1CCOC1): 412 nm
emission maximum (in CO): 423 nm

Structure (SMILES): N#Cc1cccc(-c2cccc(-c3nc(-c4cccc(-c5cccc(C#N)c5)c4)nc(-c4cccc(-c5cccc(C#N)c5)c4)n3)c2)c1
emission maximum (in ClCCl): 420 nm

Structure (SMILES): CCCCc1ccc(-n2c3c(c4c2c2c(n4-c4ccc(CCCC)cc4)-c4ccc(C(F)(F)F)cc4NB2c2ccccc2)B(c2ccccc2)Nc2cc(C(F)(F)F)ccc2-3)cc1
emission maximum (in Cc1ccccc1): 413 nm

Structure (SMILES): FC(F)(F)C(F)(F)C(F)(F)C1=NC2=C(Br)C=C3c4cc(Br)c5nc(C(F)(F)C(F)(F)C(F)(F)F)nc6c(Br)cc(c4c56)=C4C=C(Br)C(=N1)C2C34 (stereo unspecified)
emission maximum (in C1CCOC1): 486 nm

Structure (SMILES): O=C(c1ccc(N2c3ccccc3Oc3ccccc32)cc1)c1cccc(C(=O)c2ccc(N3c4ccccc4Oc4ccccc43)cc2)c1
emission maximum (in Cc1ccccc1): 566 nm
emission maximum (in c1cc(-c2cccc(-n3c4ccccc4c4ccccc43)c2)cc(-n2c3ccccc3c3ccccc32)c1): 541 nm

Structure (SMILES): O=CC1=C(c2ccc(-c3cccs3)s2)CC1
emission maximum (in C1CCOC1): 470 nm
emission maximum (in CC#N): 493 nm
emission maximum (in CCCCCC): 464 nm
emission maximum (in CCO): 516 nm
emission maximum (in OCCOCCO): 526 nm
emission maximum (in c1ccncc1): 495 nm

Structure (SMILES): CC(C)(C)c1ccc(Oc2cc3c4c(cc(Oc5ccc(C(C)(C)C)cc5)c5c6c(Oc7ccc(C(C)(C)C)cc7)cc7c8c(cc(Oc9ccc(C(C)(C)C)cc9)c(c2c45)c86)C(=O)N(c2ccccc2)C7=O)C(=O)N(c2ccccc2)C3=O)cc1
emission maximum (in ClC(Cl)Cl): 617 nm

Structure (SMILES): CC1(C)CC(NCc2ccc3ccc4cccc5ccc2c3c45)CC(C)(C)N1
emission maximum (in C1CCCCC1): 375 nm
emission maximum (in CC#N): 375 nm
emission maximum (in CO): 375 nm
emission maximum (in ClC(Cl)Cl): 396 nm

Structure (SMILES): CC1(C)c2ccccc2N(c2ccccc2)c2ccc(-c3ccc(C(=O)c4ccc(-c5ccc6c(c5)C(C)(C)c5ccccc5N6c5ccccc5)cc4)cc3)cc21
emission maximum (in Cc1ccccc1): 449.72 nm
emission maximum (in O=P(c1ccccc1)(c1ccccc1)c1ccccc1Oc1ccccc1P(=O)(c1ccccc1)c1ccccc1): 475 nm

Structure (SMILES): CC(C)(C)c1ccc2c(c1)c1cc(C(C)(C)C)ccc1n2-c1ccc(C(=O)c2ccc(-n3c4ccc(C(C)(C)C)cc4c4cc(C(C)(C)C)ccc43)nc2)cn1
emission maximum (in C1CCOC1): 496.58 nm
emission maximum (in Cc1ccccc1): 465.19 nm
emission maximum (in ClCCl): 532.91 nm

Structure (SMILES): CN(C)c1ccc2[c](c1)[Ge]([CH3])([CH3])[C]1=CC(=[N+](C)C)C=CC1=C2
emission maximum (in O): 634 nm

Structure (SMILES): CN(C)c1ccc(-c2nc(-c3ccc(N(C)C)cc3)c3ccccc3n2)cc1
emission maximum (in C1CCCCC1): 436 nm
emission maximum (in C1CCOC1): 528 nm
emission maximum (in CC#N): 571 nm
emission maximum (in CS(C)=O): 575 nm
emission maximum (in ClCCl): 530 nm

Structure (SMILES): O=C1O[B-]2(OC1=O)OC(c1ccccc1)=CC(c1ccc3ccccc3c1)=[O+]2
emission maximum (in CC#N): 555 nm
emission maximum (in ClC(Cl)(Cl)Cl): 451 nm

Structure (SMILES): O=c1ccc2ccc(C#Cc3ccccc3)cc2o1
emission maximum (in CC#N): 364 nm

Structure (SMILES): CC1(C)c2cc(/C=C/c3nc(/C=C/c4ccc5c(c4)C(C)(C)c4cc(N(c6ccccc6)c6ccccc6)ccc4-5)nc(/C=C/c4ccc5c(c4)C(C)(C)c4cc(N(c6ccccc6)c6ccccc6)ccc4-5)n3)ccc2-c2ccc(N(c3ccccc3)c3ccccc3)cc21
emission maximum (in C1CCOC1): 555 nm

Structure (SMILES): C[C@@]12SC(Cl)=CC1=c1nc(-c3ccc(Cl)cc3)[nH]c1=C1C=C(Cl)S[C@]12C
emission maximum (in CC#N): 449 nm

Structure (SMILES): O=S1(=O)c2ccccc2-c2c1c1ccccc1p2-c1ccccc1 (stereo unspecified)
emission maximum (in C1CCCCC1): 436 nm
emission maximum (in CC#N): 453 nm
emission maximum (in CCO): 464 nm
emission maximum (in ClCCl): 453 nm

Structure (SMILES): c1ccc(-c2cc3cc4cccc5c(-c6ccccc6)cc6cc7cccc2c7c3c6c45)cc1
emission maximum (in ClCCl): 442 nm

Structure (SMILES): S=c1[nH]nc(-c2ccc(/C=C/c3ccc(-c4n[nH]c(=S)o4)cc3)cc2)o1
emission maximum (in CN(C)C=O): 401 nm

Structure (SMILES): COc1ccc(-c2nc(-c3ccc(-c4nc(-c5ccc(OC)cc5)c(-c5ccc(OC)cc5)[nH]4)cc3)[nH]c2-c2ccc(OC)cc2)cc1
emission maximum (in CC#N): 416.5 nm and 440 nm

Structure (SMILES): c1ccc2cc(-c3cc(-c4nccs4)nc(-c4nccs4)c3)ccc2c1
emission maximum (in CC#N): 385 nm
emission maximum (in CCCCCC): 361 nm
emission maximum (in CO): 392 nm
emission maximum (in ClC(Cl)Cl): 372 nm

Structure (SMILES): Clc1ccc(N2c3sc4ccccc4c3Sc3c2sc2ccccc32)cc1
emission maximum (in ClCCl): 546 nm

Structure (SMILES): O=S1(=O)C2=C(c3ccccc31)C1(C3=C(c4ccccc41)S(=O)(=O)c1ccccc13)c1ccccc12
emission maximum (in ClCCl): 444 nm

Structure (SMILES): CC(=O)c1cc(=O)n(C)c2cc(-c3ccc(N(C)C)cc3)sc12
emission maximum (in CC#N): 504 nm
emission maximum (in ClCCl): 610 nm

Structure (SMILES): CC1(C)c2ccccc2N(c2ccc3c(c2)C(c2ccccc2)(c2ccccc2)c2cc(N4c5ccccc5C(C)(C)c5ccccc54)ccc2S3(=O)=O)c2ccccc21
emission maximum (in Cc1ccccc1): 448 nm

Structure (SMILES): N#C/C(=C\c1ccc(Cl)cc1)c1nc2ccccc2s1
emission maximum (in C1CCCCC1): 390 nm
emission maximum (in CO): 430 nm

Structure (SMILES): COc1ccc(-c2cnc(-c3cccnc3)o2)cc1OC
emission maximum (in ClCCl): 420 nm

Structure (SMILES): c1cc2c3cscc3c3ccsc3c2s1
emission maximum (in ClC(Cl)Cl): 395 nm

Structure (SMILES): Cc1cc2sccc2c2[nH]c3ccccc3c12
emission maximum (in ClCCl): 346 nm

Structure (SMILES): CC1(C)CC(=O)c2c(F)c(F)c(F)c(F)c2N1
emission maximum (in CC#N): 449 nm
emission maximum (in CCO): 479 nm

Structure (SMILES): C1=C(c2ccc(-c3cccs3)s2)CCC1
emission maximum (in C1CCOC1): 413 nm
emission maximum (in CC#N): 412 nm
emission maximum (in CCCCCC): 410 nm
emission maximum (in CCO): 408 nm
emission maximum (in OCCOCCO): 416 nm
emission maximum (in c1ccncc1): 418 nm

Structure (SMILES): Cc1cc(C)n2c1C=C1c3ccccc3C(c3cccn3C)=[N+]1[B-]2(F)F
emission maximum (in C1CCOC1): 608 nm
emission maximum (in CC#N): 606 nm
emission maximum (in CCCCCC): 605 nm
emission maximum (in CO): 605 nm
emission maximum (in Cc1ccccc1): 613 nm
emission maximum (in ClCCl): 611 nm

Structure (SMILES): CC1(C)OB(c2cc3ccc4cc(B5OC(C)(C)C(C)(C)O5)cc5ccc(c2)c3c45)OC1(C)C
emission maximum (in Cc1ccccc1): 400 nm

Continued, in another order:

emission maximum (in ClC(Cl)Cl): 626 nm
Structure (SMILES): CCCCCCN1C(=O)C(c2ccc(-n3c4ccccc4c4ccccc43)cc2)=C(c2ccc(-n3c4ccccc4c4ccccc43)cc2)C1=O
emission maximum (in c1ccc2c(c1)c1ccccc1n2-c1ccc(-c2ccc(-n3c4ccccc4c4ccccc43)cc2)cc1): 591 nm

emission maximum (in ClCCl): 403 nm
Structure (SMILES): COc1cc2c(cc1OC)C1=C[C@H](c3ccc(C)cc3)C3(C(C#N)=C(C#N)N1CC2)c1ccccc1-c1ccccc13

emission maximum (in C1CCOC1): 493 nm
Structure (SMILES): N#Cc1c(N2CCCCC2)cc(-c2ccc(Br)s2)c2c1CCc1ccccc1-2

emission maximum (in CC#N): 474 nm
emission maximum (in CCCCCC): 376 nm
emission maximum (in CO): 377 nm
emission maximum (in ClC(Cl)Cl): 452 nm
Structure (SMILES): c1ccc2cc3cc(-c4cc(-c5nccs5)nc(-c5nccs5)c4)ccc3cc2c1

emission maximum (in ClC(Cl)Cl): 682 nm
Structure (SMILES): CCCCCCCCOc1ccc(-c2c3c4n(c(-c5ccc(OCCCCCCCC)cc5)c3c3n2[B-](F)(F)[n+]2c(ccc5ccccc52)N=3)[B-](F)(F)[n+]2c(ccc3ccccc32)N=4)cc1

emission maximum (in ClCCl): 571 nm
Structure (SMILES): CC1=C(Br)C(C)=[N+]2C1=C(c1c(-c3ccccn3)nc3ccccn13)c1c(C)c(Br)c(C)n1[B-]2(F)F

emission maximum (in C1CCCCC1): 375 nm
emission maximum (in CC#N): 376 nm
emission maximum (in CO): 375 nm
emission maximum (in ClC(Cl)Cl): 376 nm
Structure (SMILES): CC1(C)CC(NCc2ccc3ccc4cccc5ccc2c3c45)CC(C)(C)N1[O]

emission maximum (in ClCCl): 556 nm
Structure (SMILES): COc1ccc(/C=C/C2=[O+][B-](F)(F)OC(/C=C/c3ccc(OC)cc3)=C2c2cccc(OC)c2)cc1

emission maximum (in ClCCl): 551 nm
Structure (SMILES): Cc1cc(C)c(C2=C3C=C(/C=C/C(=O)OC(C)(C)C)C=[N+]3[B-](F)(F)n3c2ccc3N2CCCC2)c(C)c1

emission maximum (in ClCCl): 418 nm
Structure (SMILES): CCCc1cc2c(s1)-c1cc3c(cc1NB2c1ccccc1)-c1sc(CCC)cc1B(c1ccccc1)N3

emission maximum (in CCCCCC): 504 nm
emission maximum (in CO): 502 nm
emission maximum (in ClCCl): 506 nm
Structure (SMILES): CC1=C2C=CC(C)=[N+]2[B-](F)(F)n2cccc21

emission maximum (in C1CCCCC1): 632 nm
emission maximum (in CCOC(C)=O): 662 nm
Structure (SMILES): CC1=[N+]2C(=C(Oc3cc(C)c4c(c3)CC[C@@](C)(CCC[C@H](C)CCC[C@H](C)CCCC(C)C)O4)c3ccc(C)n3[B-]2(F)F)C=C1c1cc2n(c1)[B-](F)(F)[N+]1=CC=CC1=C2c1c(C)cc(C)cc1C

emission maximum (in ClC(Cl)Cl): 703 nm
Structure (SMILES): CCOC(=O)/C=C/C1=C(c2ccc(C)cc2)C2=Nc3c(-c4ccc(C)cc4)c(Br)c(-c4ccc(C)cc4)n3[B-](F)(F)[N+]2=C1c1ccc(C)cc1

emission maximum (in C1CCOC1): 612 nm
Structure (SMILES): CC1=[N+]2C(=C(c3ccc(C(=C(c4ccccc4)c4ccccc4)c4ccccc4)cc3)c3ccc(/C=C/c4ccc(C(=C(c5ccccc5)c5ccccc5)c5ccccc5)cc4)n3[B-]2(F)F)C=C1

emission maximum (in ClC(Cl)Cl): 598 nm and 597 nm
Structure (SMILES): COc1ccccc1C1=[N+]2C(=C(c3ccc(I)cc3)c3ccc(-c4ccccc4OC)n3[B-]2(F)F)C=C1

emission maximum (in ClCCl): 445 nm
Structure (SMILES): CCCCn1c(-c2ccc(-c3nnc(-c4ccc5ccccc5c4)o3)cc2)nc(-c2ccccc2)c1-c1ccccc1

emission maximum (in CCCCCC): 654 nm
Structure (SMILES): CC(C)[Si](C#Cc1c2cc3ccccc3cc2c(C#C[Si](C(C)C)(C(C)C)C(C)C)c2nc3c(ccc4cc5ccccc5cc43)nc12)(C(C)C)C(C)C
